We go through two compounds from patent US9834525B2, “Inhibitors of paxillin function and related compositions and methods” (UNIVERSITY OF TENNESSEE RESEARCH FOUNDATION, priority 2015, dated 2017).

Format in all cases: cell-based, human
In experiment [1] the test system is retinal endothelial cells (REC). Description: VEGF-induced REC proliferation, WST-1 metabolic assay. To be noted: Compound (II-4) (500 nM), LY294002 (1004), SU6656 (104), U0126 (104) [sic]. The procedure: To investigate the potential of compound (II-4) affecting the proliferative capacity of RECs treated with VEGF, proliferation was measured using the metabolic assay based on the tetrazolium salt, WST-1. […] To rule out the possibility that this observation was related to cytotoxicity, RECs were incubated with a high concentration of compound (II-4) (1 μM) for 24 hours. Cells were harvested and apoptosis measured with Annexin-V/Propidium Iodide (PI) staining and analyzed using flow cytometry.
FIG. 18: REC Proliferation and Flow cytometry analysis of apoptosis in REC. A) VEGF-induced cellular proliferation was assessed using the WST-1 metabolic assay. […] (*P<0.0001). Nuclei were stained with DRAQ5 and imaged to show trend of decreasing proliferation. B) Apoptosis was measured using Annexin V/PI staining Compound (II-4) (1 μM) appears to be non-cytotoxic to retinal endothelial cells after 24 hour incubation (n≈10,000 cells).
FIG. 21: REC Proliferation. […] (*, # P<0.001; Mean±SD, N=8/group).

For another experiment, the system named is paxillin (pY118). Kind of experiment: Western blot of VEGF-induced paxillin Y118 phosphorylation in REC. To be noted: REC under VEGF; compound (II-4) 500 nM, SU6656 1 μM. The procedure: (§1) REC, Mel 270, OMM 2.5 under Hepatocyte Growth Factor (HGF) or Vascular Endothelial Growth Factor (VEGF) stimulation conditions: Cell lysates were collected in RIPA lysis buffer (50 mM Tris-HCl, pH 7.4, 150 mM NaCl, 2 mM EDTA, 1% Nonidet P-40, 0.1% SDS) with protease 1× inhibitor cocktail (Roche; Indianapolis, Ind.). Lysates were kept on ice and centrifuged at 10,000×g×10 minutes and total protein was measured using the BCA assay (Pierce, Rockford, Ill.). Protein samples were mixed with 4×LDS loading buffer with 2.5% 2-mercaptoethanol (Sigma-Aldrich), heated to 70° C. for 10 minutes, and loaded on NuPAGE 4-12% Bis-Tris gel (Invitrogen, Carlsbad, Calif.). Immunoblotting was performed with nitrocellulose membranes (Bio-Rad, Hercules, Calif.) at 170-mA start and 110-mA end at 25 V for two hours in NuPAGE transfer buffer (Invitrogen) containing 20% methanol. Membranes were blocked using Odyssey blocking buffer (LI-COR; Lincoln, Nebr.) for one hour at room temperature with gentle shaking Membranes were then incubated at 4° C. with specific primary antibodies (1:1000) overnight. Cellular protein was normalized using rabbit-GAPDH or mouse-α-Tubulin [1:20,000] (Cell Signaling, Danvers, Mass.; LI-COR, respectively). Secondary antibodies (IRDye 800CW goat anti-rabbit and IRDye 680LT goat anti-mouse) [1:10,000] were incubated in the dark at room temperature for 45 minutes. Dual-channel infrared scan and quantitation of immunoblots were conducted using the ODYSSEY Sa infrared imaging system with Image Studio (Ver. 3.1.4) (LI-COR).
The α4 subunit of the cytoplasmic tail of VLA-4 interacts with the cytoskeletal adaptor paxillin, merging intracellular signaling events that drive cellular proliferation and migration (FIG. 13). Compound (II-4) inhibits phosphorylation of paxillin at Y118 (pY118) in the LD-region that interacts with the α4 subunit of VLA-4. To confirm the inhibition of pY118 of paxillin after use of compound (II-4) retinal endothelial cells (REC) were activated with Vascular Endothelial Growth Factor (VEGF) at 50 ng/mL in the presence or absence (vehicle) of compound (II-4) at a concentration of […] for 4-hrs. […] VEGF-induced pY118 was prevented by treatment with compound (II-4) [VEGF-REC treatment versus untreated, *p<0.005; VEGF-induced versus compound (II-4) treatment, **p<0.05—FIG. 13C].
To gain insight into the mechanistic basis for this phenotype, the effect of compound (II-4) on the Src/FAK/paxillin/ERK signalsome in RECs under VEGF was examined. […] Next, characterization of the potential of compound (II-4) to affect FA disassembly through inactivation of ERK was explored. […]
FIG. 13: Targeting the alpha-4 subunit of VLA-4 signaling through inhibition of paxillin. […] Phosphorylation measured by Western Blot. […]
A general note: Immunoblotting shows a protein as a band on a membrane.

Experiment [2] deals with FAK (Y397, Y576/577, Y925). Kind of experiment: Western blot of VEGF-induced FAK phosphorylation in REC. Particulars: REC under VEGF; compound (II-4) 500 nM, SU6656 1 μM. How it is done: as §1, with “Secondary antibodies (IRDye 800CW goat anti-rabbit and IRDye 680LT goat anti-mouse) [1:10,000] were incubated in the dark at room temperature for 45 minutes.” left out, “(LI-COR). […]” for “(LI-COR).”

Another experiment concerns AKT (Ser473). Kind of experiment: Western blot of VEGF-induced AKT phosphorylation in REC. Particulars: REC under VEGF; compound (II-4) 500 nM, SU6656 1 μM. The procedure: as §1, with “Secondary antibodies (IRDye 800CW goat anti-rabbit and IRDye 680LT goat anti-mouse) [1:10,000] were incubated in the dark at room temperature for 45 minutes.” left out, “(LI-COR). […]” for “(LI-COR).”

In another experiment the test system is ERK1/2. Description: Western blot of VEGF-induced ERK1/2 phosphorylation in REC. Particulars: REC under VEGF; compound (II-4) 500 nM, SU6656 1 μM. How it is done:
as §1, with “Secondary antibodies (IRDye 800CW goat anti-rabbit and IRDye 680LT goat anti-mouse) [1:10,000] were incubated in the dark at room temperature for 45 minutes.” left out, “(LI-COR). […]” for “(LI-COR).”

As to `N#CC(=C(/N)Sc1ccccc1N)/C(C#N)=C(\N)Sc1ccccc1N` [U0126, reference compound], the “VEGF-induced REC proliferation (FIG. 21)” value in experiment [1] is listed as “VEGF-induced REC proliferation was inhibited”. For the same compound, the “VEGF-induced PaxY118 phosphorylation (FIG. 20)” value in the experiment on paxillin (pY118) is listed as “no change in activation of Y118”.
With `CN(C)S(=O)(=O)c1ccc2c(c1)/C(=C/c1cc3c([nH]1)CCCC3)C(=O)N2` [SU6656, reference compound], in experiment [2], the “VEGF-induced FAK activation (Y397, Y925)” value was “inhibited”. Further, the “VEGF-induced activation of AKT (P-AKT Ser473)” value with AKT (Ser473) is “inhibited”. In addition, the “VEGF-dependent ERK1/2 phosphorylation” value in the experiment on ERK1/2 was “Neither SU6656 nor compound (II-4) decreased”. In experiment [1], the “VEGF-induced REC proliferation (FIG. 21)” value is “inhibited”. Further, the “VEGF-induced PaxY118 phosphorylation (FIG. 20)” value in the experiment on paxillin (pY118) is reported as “inhibited”.
